Test results: article PMC5218480 (PLoS ONE, 2017)

System: MV-4-11 cells
Test: Gene expression microarray analysis (Affymetrix PrimeView) and GSEA
Type: cell-based, human
Design: RFU PODN (11730768_x_at) / Fold change /veh PODN (11730768_x_at) / RFU LINC00158 (11744669_a_at) / Fold change /veh LINC00158 (11744669_a_at) / RFU DUSP10 (11751237_a_at) / Fold change /veh DUSP10 (11751237_a_at) / RFU ID3 (11757404_x_at) / Fold change /veh ID3 (11757404_x_at) / RFU PLEKHG5 (11737974_s_at) / Fold change /veh PLEKHG5 (11737974_s_at) / RFU LRRC4B (11730491_at) / Fold change /veh LRRC4B (11730491_at) / RFU GIMAP4 (11747438_a_at) / Fold change /veh GIMAP4 (11747438_a_at) / RFU KRT8 (11758183_x_at) / Fold change /veh KRT8 (11758183_x_at) / RFU CNN1 (11734310_a_at) / Fold change /veh CNN1 (11734310_a_at) / RFU VPS37D (11726825_at) / Fold change /veh VPS37D (11726825_at) / RFU C10orf10 (11716522_x_at) / Fold change /veh C10orf10 (11716522_x_at) / RFU KIR2DL2 /// KIR2DL4 /// KIR2DL5A /// KIR2DL5B /// KIR2DS1 /// KIR2DS2 /// KIR2DS3 /// KIR2DS4 /// KIR3DL3 /// KIR3DL3 /// KIR3DS1 (11738374_at) / Fold change /veh KIR2DL2 /// KIR2DL4 /// KIR2DL5A /// KIR2DL5B /// KIR2DS1 /// KIR2DS2 /// KIR2DS3 /// KIR2DS4 /// KIR3DL3 /// KIR3DL3 /// KIR3DS1 (11738374_at) / RFU C1QL1 (11718748_at) / Fold change /veh C1QL1 (11718748_at) / RFU TMPRSS4 (11747572_a_at) / Fold change /veh TMPRSS4 (11747572_a_at) / RFU HAMP (11756126_x_at) / Fold change /veh HAMP (11756126_x_at) / RFU RNFT2 (11725882_a_at) / Fold change /veh RNFT2 (11725882_a_at) / RFU NR4A2 (11747474_a_at) / Fold change /veh NR4A2 (11747474_a_at) / RFU ABCC12 (11746883_a_at) / Fold change /veh ABCC12 (11746883_a_at) / RFU TMEM136 (11760407_x_at) / Fold change /veh TMEM136 (11760407_x_at) / RFU CLDN22 /// WWC2 (11732394_at) / Fold change /veh CLDN22 /// WWC2 (11732394_at) / RFU HLA-DPB1 (11760878_x_at) / Fold change /veh HLA-DPB1 (11760878_x_at) / RFU SPINT1 (11716480_a_at) / Fold change /veh SPINT1 (11716480_a_at) / RFU GAP43 (11754022_s_at) / Fold change /veh GAP43 (11754022_s_at) / RFU A4GNT (11735810_at) / Fold change /veh A4GNT (11735810_at) / RFU PRB3 (11715151_x_at) / Fold change /veh PRB3 (11715151_x_at) / RFU TUBB4B (11761932_at) / Fold change /veh TUBB4B (11761932_at) / RFU CAPN14 (11732068_a_at) / Fold change /veh CAPN14 (11732068_a_at) / RFU TMCC2 (11721928_a_at) / Fold change /veh TMCC2 (11721928_a_at) / RFU IRGQ (11745062_a_at) / Fold change /veh IRGQ (11745062_a_at) / RFU FAM174B (11720279_a_at) / Fold change /veh FAM174B (11720279_a_at) / RFU TMPRSS4 (11748680_a_at) / Fold change /veh TMPRSS4 (11748680_a_at) / RFU FAM212B (11763350_a_at) / Fold change /veh FAM212B (11763350_a_at) / RFU PLEKHG5 (11743358_a_at) / Fold change /veh PLEKHG5 (11743358_a_at) / RFU ZSCAN30 (11745921_a_at) / Fold change /veh ZSCAN30 (11745921_a_at) / RFU CMKLR1 (11741424_a_at) / Fold change /veh CMKLR1 (11741424_a_at) / RFU LOC101060620 /// MAPK8IP1 (11723275_at) / Fold change /veh LOC101060620 /// MAPK8IP1 (11723275_at) / RFU SPTSSB (11747773_x_at) / Fold change /veh SPTSSB (11747773_x_at) / RFU PRSS12 (11739890_at) / Fold change /veh PRSS12 (11739890_at) / RFU BIN1 (11741810_x_at) / Fold change /veh BIN1 (11741810_x_at) / RFU WNT11 (11732464_a_at) / Fold change /veh WNT11 (11732464_a_at) / RFU C10orf10 (11716521_a_at) / Fold change /veh C10orf10 (11716521_a_at) / RFU C5orf56 (11738089_at) / Fold change /veh C5orf56 (11738089_at) / RFU CYB561 (11721691_x_at) / Fold change /veh CYB561 (11721691_x_at) / RFU ANKRD19P (11752326_a_at) / Fold change /veh ANKRD19P (11752326_a_at) / RFU OR2T12 /// OR2T33 /// OR2T8 (11738714_s_at) / Fold change /veh OR2T12 /// OR2T33 /// OR2T8 (11738714_s_at) / RFU VCAN (11748164_a_at) / Fold change /veh VCAN (11748164_a_at) / RFU JSRP1 (11732532_at) / Fold change /veh JSRP1 (11732532_at) / RFU KRTAP10-11 (11738290_x_at) / Fold change /veh KRTAP10-11 (11738290_x_at) / RFU MYO3A (11730013_a_at) / Fold change /veh MYO3A (11730013_a_at) / RFU EBF3 (11725865_a_at) / Fold change /veh EBF3 (11725865_a_at) / RFU CAMK2N1 (11719241_x_at) / Fold change /veh CAMK2N1 (11719241_x_at) / RFU C5orf56 (11738088_a_at) / Fold change /veh C5orf56 (11738088_a_at) / RFU OLFML3 (11715873_a_at) / Fold change /veh OLFML3 (11715873_a_at) / RFU LOC100653217 /// NTM (11731650_a_at) / Fold change /veh LOC100653217 /// NTM (11731650_a_at) / RFU MAPK11 (11762145_a_at) / Fold change /veh MAPK11 (11762145_a_at) / RFU FIZ1 (11724087_x_at) / Fold change /veh FIZ1 (11724087_x_at) / RFU OASL (11726364_x_at) / Fold change /veh OASL (11726364_x_at) / RFU SOX15 (11748057_x_at) / Fold change /veh SOX15 (11748057_x_at) / RFU CD79A (11719716_a_at) / Fold change /veh CD79A (11719716_a_at) / RFU HIST1H1D (11736915_at) / Fold change /veh HIST1H1D (11736915_at) / RFU CASKIN2 (11723855_a_at) / Fold change /veh CASKIN2 (11723855_a_at) / RFU LOC730098 (11760151_x_at) / Fold change /veh LOC730098 (11760151_x_at) / RFU OR4N2 (11742367_at) / Fold change /veh OR4N2 (11742367_at) / RFU PRRT2 (11749266_a_at) / Fold change /veh PRRT2 (11749266_a_at) / RFU SNX32 (11753110_a_at) / Fold change /veh SNX32 (11753110_a_at) / RFU CDHR5 (11726645_a_at) / Fold change /veh CDHR5 (11726645_a_at) / RFU RCAN1 (11760418_a_at) / Fold change /veh RCAN1 (11760418_a_at) / RFU FAM167A (11723789_a_at) / Fold change /veh FAM167A (11723789_a_at) / RFU FAM26E (11764081_at) / Fold change /veh FAM26E (11764081_at) / RFU ISYNA1 (11749810_s_at) / Fold change /veh ISYNA1 (11749810_s_at) / RFU ACY1 (11761880_at) / Fold change /veh ACY1 (11761880_at) / RFU 11764098_at / Fold change /veh 11764098_at / RFU SAMD14 (11745864_x_at) / Fold change /veh SAMD14 (11745864_x_at) / RFU NPB (11741838_a_at) / Fold change /veh NPB (11741838_a_at) / RFU TMPRSS6 (11731388_a_at) / Fold change /veh TMPRSS6 (11731388_a_at) / RFU KRTAP10-2 (11738614_at) / Fold change /veh KRTAP10-2 (11738614_at) / RFU ARHGAP8 /// PRR5-ARHGAP8 (11727945_x_at) / Fold change /veh ARHGAP8 /// PRR5-ARHGAP8 (11727945_x_at) / RFU KRTAP5-7 /// NADSYN1 (11734609_at) / Fold change /veh KRTAP5-7 /// NADSYN1 (11734609_at) / RFU RASL12 (11751679_a_at) / Fold change /veh RASL12 (11751679_a_at) / RFU CDKN2B (11736163_a_at) / Fold change /veh CDKN2B (11736163_a_at) / RFU PRF1 (11729649_at) / Fold change /veh PRF1 (11729649_at) / RFU, ZNF638 /// ZNF638-IT1 / Fold change vs veh, ZNF638 /// ZNF638-IT1 / RFU, PANK3 / Fold change vs veh, PANK3 / RFU, SH3YL1 / Fold change vs veh, SH3YL1 / RFU, ZEB2 / Fold change vs veh, ZEB2 / RFU, NRIP1 / Fold change vs veh, NRIP1 / RFU, PTTG1IP / Fold change vs veh, PTTG1IP / RFU, CAPN2 / Fold change vs veh, CAPN2 / RFU, MED14 / Fold change vs veh, MED14 / RFU, SNORA58 / Fold change vs veh, SNORA58 / RFU, C1orf63 / Fold change vs veh, C1orf63 / RFU, LRRFIP1 / Fold change vs veh, LRRFIP1 / RFU, NDUFAF7 / Fold change vs veh, NDUFAF7 / RFU, SLC12A2 / Fold change vs veh, SLC12A2 / RFU, IBTK / Fold change vs veh, IBTK / RFU, ESF1 / Fold change vs veh, ESF1 / Fold change vs veh, TMEM50B / RFU, TAOK1 / Fold change vs veh, TAOK1 / RFU, ACBD3 / Fold change vs veh, ACBD3 / RFU, TMA16 / Fold change vs veh, TMA16 / RFU, RWDD3 / Fold change vs veh, RWDD3 / RFU, BCAT1 / Fold change vs veh, BCAT1 / RFU, EDEM3 / Fold change vs veh, EDEM3 / RFU, TMEM33 / Fold change vs veh, TMEM33 / RFU, WDR75 / Fold change vs veh, WDR75 / RFU, AHCTF1 / Fold change vs veh, AHCTF1 / RFU, TFRC / Fold change vs veh, TFRC / RFU, ZDHHC17 / Fold change vs veh, ZDHHC17 / RFU, NOM1 / Fold change vs veh, NOM1 / RFU, ARL8B / Fold change vs veh, ARL8B / RFU, ZBTB11 / Fold change vs veh, ZBTB11 / RFU, TAMM41 / Fold change vs veh, TAMM41 / RFU, KIAA1704 /// LOC100996395 / Fold change vs veh, KIAA1704 /// LOC100996395 / RFU, ING1 / Fold change vs veh, ING1 / RFU, TRMT61B / Fold change vs veh, TRMT61B / RFU, FUBP3 / Fold change vs veh, FUBP3 / RFU, TP53 / Fold change vs veh, TP53 / RFU, TNKS2 / Fold change vs veh, TNKS2 / RFU, ZFP14 / Fold change vs veh, ZFP14 / RFU, ACTR2 / Fold change vs veh, ACTR2 / RFU, PPP3R1 / Fold change vs veh, PPP3R1 / RFU, PIK3R1 / Fold change vs veh, PIK3R1 / RFU, HNRNPA1 / Fold change vs veh, HNRNPA1 / RFU, RNF170 / Fold change vs veh, RNF170 / RFU, ZNF28 / Fold change vs veh, ZNF28 / RFU, RNGTT / Fold change vs veh, RNGTT / RFU, OGT / Fold change vs veh, OGT / RFU, BRD1 / Fold change vs veh, BRD1 / RFU, MARS / Fold change vs veh, MARS / RFU, ZNF655 / Fold change vs veh, ZNF655 / RFU, FAHD1 / Fold change vs veh, FAHD1 / RFU, BDP1 / Fold change vs veh, BDP1 / RFU, LRRCC1 / Fold change vs veh, LRRCC1 / RFU, ARID1A / Fold change vs veh, ARID1A / RFU, ZNF146 / Fold change vs veh, ZNF146 / RFU, ZNF330 / Fold change vs veh, ZNF330 / RFU, GPN3 / Fold change vs veh, GPN3 / RFU, C9orf123 / Fold change vs veh, C9orf123 / RFU, N4BP2L2 / Fold change vs veh, N4BP2L2 / RFU, ARFIP1 / Fold change vs veh, ARFIP1 / RFU, FAM179B / Fold change vs veh, FAM179B / RFU, BCL10 / Fold change vs veh, BCL10 / RFU, UHRF1BP1L / Fold change vs veh, UHRF1BP1L / RFU, BET1 / Fold change vs veh, BET1 / RFU, CNOT2 / Fold change vs veh, CNOT2 / RFU, ZNF268 / Fold change vs veh, ZNF268 / Fold change vs veh, ZNF507 / RFU, DGCR2 / Fold change vs veh, DGCR2 / RFU, WDSUB1 / Fold change vs veh, WDSUB1 / Fold change vs veh, HSP90B1 /// MIR3652 / RFU, ADSS / Fold change vs veh, ADSS / RFU, GK / Fold change vs veh, GK / RFU, ZNF148 / Fold change vs veh, ZNF148 / RFU, TAF9 / Fold change vs veh, TAF9 / RFU, SLC1A5 / Fold change vs veh, SLC1A5 / RFU, SLMO2 / Fold change vs veh, SLMO2 / RFU, ABCC4 / Fold change vs veh, ABCC4 / RFU, LOC101060439 /// RAP1B / Fold change vs veh, LOC101060439 /// RAP1B / RFU, RFX7 / Fold change vs veh, RFX7 / RFU, GTPBP10 / Fold change vs veh, GTPBP10 / RFU, CNEP1R1 / Fold change vs veh, CNEP1R1 / RFU, BIVM-ERCC5 /// ERCC5 / Fold change vs veh, BIVM-ERCC5 /// ERCC5 / RFU, ILF3 / Fold change vs veh, ILF3 / RFU 11762660_at / Fold change /veh 11762660_at / RFU VCAN (11757783_s_at) / Fold change /veh VCAN (11757783_s_at) / RFU DDX43 (11728927_at) / Fold change /veh DDX43 (11728927_at) / RFU KRT8 (11758188_x_at) / Fold change /veh KRT8 (11758188_x_at) / RFU NKD1 (11759106_at) / Fold change /veh NKD1 (11759106_at) / RFU SRD5A1 (11742802_a_at) / Fold change /veh SRD5A1 (11742802_a_at) / RFU TPSAB1 /// TPSB2 (11721975_s_at) / Fold change /veh TPSAB1 /// TPSB2 (11721975_s_at) / RFU GSTM3 (11746129_a_at) / Fold change /veh GSTM3 (11746129_a_at) / RFU IL23R (11737362_x_at) / Fold change /veh IL23R (11737362_x_at) / RFU TMEM51 (11727254_a_at) / Fold change /veh TMEM51 (11727254_a_at) / RFU PIWIL2 (11732686_x_at) / Fold change /veh PIWIL2 (11732686_x_at) / RFU ORM1 (11744905_x_at) / Fold change /veh ORM1 (11744905_x_at) / RFU CCDC152 (11743942_at) / Fold change /veh CCDC152 (11743942_at) / RFU ECM1 (11717891_a_at) / Fold change /veh ECM1 (11717891_a_at) / RFU IL23R (11748794_a_at) / Fold change /veh IL23R (11748794_a_at) / RFU TNFAIP8L3 (11732012_x_at) / Fold change /veh TNFAIP8L3 (11732012_x_at) / RFU MBOAT4 (11741988_at) / Fold change /veh MBOAT4 (11741988_at) / RFU 11764193_at / Fold change /veh 11764193_at / RFU TMEM53 (11763286_at) / Fold change /veh TMEM53 (11763286_at) / RFU MAGEB2 (11727129_at) / Fold change /veh MAGEB2 (11727129_at) / RFU TMEM200A (11744735_a_at) / Fold change /veh TMEM200A (11744735_a_at) / RFU CCDC152 (11751479_a_at) / Fold change /veh CCDC152 (11751479_a_at) / RFU FAM211A (11726209_a_at) / Fold change /veh FAM211A (11726209_a_at) / RFU RGS16 (11746705_a_at) / Fold change /veh RGS16 (11746705_a_at) / RFU VCAN (11755009_s_at) / Fold change /veh VCAN (11755009_s_at) / RFU RHOB (11743442_s_at) / Fold change /veh RHOB (11743442_s_at) / RFU RGS16 (11720943_a_at) / Fold change /veh RGS16 (11720943_a_at) / RFU RGS16 (11720944_at) / Fold change /veh RGS16 (11720944_at) / RFU, VPS4B / Fold change vs veh, VPS4B / RFU, CREB1 / Fold change vs veh, CREB1 / RFU, DNAJC13 / Fold change vs veh, DNAJC13 / RFU, GNAQ / Fold change vs veh, GNAQ / RFU, CDK5R1 / Fold change vs veh, CDK5R1 / RFU, ZRANB3 / Fold change vs veh, ZRANB3 / RFU, CUL4A / Fold change vs veh, CUL4A / RFU, CCNY / Fold change vs veh, CCNY / RFU, UFL1 / Fold change vs veh, UFL1 / RFU, COG3 / Fold change vs veh, COG3 / RFU, DIAPH2 / Fold change vs veh, DIAPH2 / RFU, SKA2 / Fold change vs veh, SKA2 / RFU, AFF3 / Fold change vs veh, AFF3 / RFU, LMF1 / Fold change vs veh, LMF1 / RFU, IPO11 / Fold change vs veh, IPO11 / RFU, DFFB / Fold change vs veh, DFFB / RFU, FOXP1 / Fold change vs veh, FOXP1 / RFU, CARD8 / Fold change vs veh, CARD8 / RFU, STRN3 / Fold change vs veh, STRN3 / RFU, ADK / Fold change vs veh, ADK / RFU, RASSF2 / Fold change vs veh, RASSF2 / RFU, WIPF1 / Fold change vs veh, WIPF1 / RFU, LARP1B / Fold change vs veh, LARP1B / RFU, RASA1 / Fold change vs veh, RASA1 / RFU, RB1 / Fold change vs veh, RB1 / RFU, PPFIA1 / Fold change vs veh, PPFIA1 / RFU, MAT2A / Fold change vs veh, MAT2A / RFU, CCT5 / Fold change vs veh, CCT5 / RFU, WDR92 / Fold change vs veh, WDR92 / RFU, CUX1 / Fold change vs veh, CUX1 / RFU, TTC7A / Fold change vs veh, TTC7A / RFU, TMEM135 / Fold change vs veh, TMEM135 / RFU, DEPTOR / Fold change vs veh, DEPTOR / RFU, CPM / Fold change vs veh, CPM / RFU, DNAJB6 / Fold change vs veh, DNAJB6 / RFU, CACNA2D3 / Fold change vs veh, CACNA2D3 / RFU, DTX4 / Fold change vs veh, DTX4 / RFU, TFCP2 / Fold change vs veh, TFCP2 / RFU, GMCL1 /// GMCL1P1 / Fold change vs veh, GMCL1 /// GMCL1P1 / RFU, AEBP2 / Fold change vs veh, AEBP2 / RFU, SNHG1 /// SNORD22 /// SNORD25 /// SNORD26 /// SNORD27 /// SNORD28 /// SNORD29 /// SNORD31 / Fold change vs veh, SNHG1 /// SNORD22 /// SNORD25 /// SNORD26 /// SNORD27 /// SNORD28 /// SNORD29 /// SNORD31 / Fold change (Aza/veh), C12orf56 (ProbeSet 11735607_a_at) / Fold change (ACY-1035/veh), C12orf56 (ProbeSet 11735607_a_at) / Fold change (Aza/veh), FGFR1OP (ProbeSet 11751329_s_at) / Fold change (ACY-1035/veh), FGFR1OP (ProbeSet 11751329_s_at) / Fold change (Aza/veh), VPS36 (ProbeSet 11739960_a_at) / Fold change (ACY-1035/veh), VPS36 (ProbeSet 11739960_a_at) / RFU SYPL1 (11715823_x_at) / Fold change /veh SYPL1 (11715823_x_at) / RFU IGFBP7 (11715501_s_at) / Fold change /veh IGFBP7 (11715501_s_at) / RFU REEP3 (11722064_at) / Fold change /veh REEP3 (11722064_at) / RFU IGLL1 (11728026_x_at) / Fold change /veh IGLL1 (11728026_x_at): dose or concentration left out as unconfirmed
Details: ProbeSet 11731093_s_at; LIST B

Structure (SMILES): Nc1ncn([C@@H]2O[C@H](CO)[C@@H](O)[C@H]2O)c(=O)n1 [azacitidine]
- Fold change vs veh, BRD1: 0.85
